Measurements published in ChEMBL document CHEMBL1201862, “PubChem BioAssay data set” (2004).
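Tested at 5 concentrations; 48 h exposure; 96-well plates; endpoints linearly interpolated, else capped at highest concentration. GI50: concentration for 50% inhibition of growth.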 The source made the active and inactive calls. Rule as the data show it: active = GI50 up to about 1.1 µM and inactive = higher. Where a SMILES comes first, the peptide text is derived from it. The star is where a group is joined. Boc = CC(C)(C)OC(=O)*

Experiments:
Experiment in all cases: growth of human tumour cells (NCI), 48 h
SK-MEL-2 = system: SK-MEL-2
NCI-H522 = system: NCI-H522
UO-31 = system: UO-31
RPMI-8226 = system: RPMI-8226
TK-10 = system: TK-10
OVCAR-8 = system: OVCAR-8
SN12C = system: SN12C
HCC 2998 = system: HCC 2998
KM12 = system: KM12
COLO 205 = system: COLO 205
CAKI-1 = system: CAKI-1
Malme-3M = system: Malme-3M
SF-539 = system: SF-539
SF-268 = system: SF-268
NCI-H226 = system: NCI-H226
786-0 = system: 786-0
A549 = system: A549
MDA-MB-231 = system: MDA-MB-231
SK-MEL-5 = system: SK-MEL-5
MOLT-4 = system: MOLT-4
SNB-19 = system: SNB-19
MDA-N = system: MDA-N
MDA-MB-435 = system: MDA-MB-435
SR = system: SR
SK-OV-3 = system: SK-OV-3
EKVX = system: EKVX
IGROV-1 = system: IGROV-1
OVCAR-5 = system: OVCAR-5
HOP-92 = system: HOP-92
BT-549 = system: BT-549
NCI/ADR-RES = system: NCI/ADR-RES
Hs-578T = system: Hs-578T
ACHN = system: ACHN
SK-MEL-28 = system: SK-MEL-28
SW-620 = system: SW-620
UACC-62 = system: UACC-62
MCF7 = system: MCF7
NCI-H23 = system: NCI-H23
RXF 393 = system: RXF 393
UACC-257 = system: UACC-257
U-251 = system: U-251
DU-145 = system: DU-145
OVCAR-3 = system: OVCAR-3
HOP-62 = system: HOP-62
K562 = system: K562
HT-29 = system: HT-29
M14 = system: M14
SF-295 = system: SF-295
SNB-75 = system: SNB-75
NCI-H460 = system: NCI-H460
T47D = system: T47D
HCT-15 = system: HCT-15
PC-3 = system: PC-3
LOX IMVI = system: LOX IMVI
HCT-116 = system: HCT-116
CCRF-CEM = system: CCRF-CEM
OVCAR-4 = system: OVCAR-4
A498 = system: A498
HL-60 = system: HL-60

Measured: GI50

CC(NC(=O)C1CCCN1C(=O)CNC(=O)OC(C)(C)C)C(=O)O (stereo not drawn) (Boc-Gly-Pro-Ala-OH; configuration not given here)
> 100 µM: HCT-15
inactive: SK-MEL-2 > 100 µM | NCI-H522 > 100 µM | UO-31 > 100 µM | RPMI-8226 > 100 µM | TK-10 > 100 µM | OVCAR-8 > 100 µM | SN12C > 100 µM | HCC 2998 > 100 µM | KM12 > 100 µM | COLO 205 > 100 µM | CAKI-1 > 100 µM | Malme-3M > 100 µM | SF-539 > 100 µM | SF-268 > 100 µM | NCI-H226 > 100 µM | 786-0 > 100 µM | A549 > 100 µM | MDA-MB-231 > 100 µM | SK-MEL-5 > 100 µM | MOLT-4 > 100 µM | SNB-19 > 100 µM | MDA-N > 100 µM | MDA-MB-435 > 100 µM | SR > 100 µM | SK-OV-3 > 100 µM | EKVX > 100 µM | IGROV-1 > 100 µM | OVCAR-5 > 100 µM | HOP-92 62.5 µM | BT-549 > 100 µM | NCI/ADR-RES > 100 µM | Hs-578T > 100 µM | ACHN > 100 µM | SK-MEL-28 > 100 µM | SW-620 > 100 µM | UACC-62 > 100 µM | MCF7 > 100 µM | NCI-H23 > 100 µM | RXF 393 > 100 µM | UACC-257 > 100 µM | U-251 > 100 µM | DU-145 > 100 µM | OVCAR-3 > 100 µM | HOP-62 > 100 µM | K562 > 100 µM | HT-29 > 100 µM | M14 > 100 µM | SF-295 > 100 µM | SNB-75 > 100 µM | NCI-H460 > 100 µM | T47D > 100 µM | PC-3 > 100 µM

O=C(O)CNCP(=O)(O)O [GLYPHOSATE]
inactive: SK-MEL-2 > 100 µM | NCI-H522 > 100 µM | RPMI-8226 > 100 µM | TK-10 > 100 µM | OVCAR-8 > 100 µM | SN12C > 100 µM | KM12 > 100 µM | COLO 205 > 100 µM | CAKI-1 > 100 µM | Malme-3M > 100 µM | SF-539 > 100 µM | SF-268 > 100 µM | NCI-H226 > 100 µM | 786-0 > 100 µM | A549 > 100 µM | MDA-MB-231 > 100 µM | SK-MEL-5 > 100 µM | MOLT-4 > 100 µM | SNB-19 > 100 µM | MDA-N > 100 µM | LOX IMVI > 100 µM | MDA-MB-435 > 100 µM | SR > 100 µM | SK-OV-3 > 100 µM | EKVX > 100 µM | HCT-116 > 100 µM | CCRF-CEM > 100 µM | IGROV-1 > 100 µM | OVCAR-5 > 100 µM | HOP-92 > 100 µM | BT-549 > 100 µM | NCI/ADR-RES > 100 µM | Hs-578T > 100 µM | ACHN > 100 µM | SK-MEL-28 > 100 µM | SW-620 > 100 µM | UACC-62 > 100 µM | MCF7 > 100 µM | NCI-H23 > 100 µM | RXF 393 > 100 µM | UACC-257 > 100 µM | U-251 > 100 µM | DU-145 > 100 µM | OVCAR-3 > 100 µM | HOP-62 > 100 µM | K562 > 100 µM | OVCAR-4 > 100 µM | A498 > 100 µM | HT-29 > 100 µM | M14 > 100 µM | SF-295 > 100 µM | SNB-75 > 100 µM | NCI-H460 > 100 µM | T47D > 100 µM | PC-3 > 100 µM | HL-60 > 100 µM
> 100 µM: HCT-15
